The values that follow come from ChEMBL document CHEMBL5257066, “The discovery of cyclic γ-AApeptides as the promising ligands targeting EP2” (Bioorg Med Chem Lett, 2023).

Activity calls are given as the source filed them. The calls are words filed in the database; no cut-off is given here.

Assay [1] concerns the target T1, Prostaglandin E2 receptor EP2 subtype (Homo sapiens, UniProt P43116). Briefly: Binding affinity to human recombinant PTGER2 assessed as dissociation constant by high throughput fluorescence polarization assay. (Fluorescence polarisation rises when a labelled molecule tumbles more slowly, as on binding a larger partner.)
The target in assay [2] is T1, Prostaglandin E2 receptor EP2 subtype. Briefly: Binding affinity to human recombinant PTGER2 by high throughput fluorescence polarization assay.

T1 sequence (P43116 whole entry): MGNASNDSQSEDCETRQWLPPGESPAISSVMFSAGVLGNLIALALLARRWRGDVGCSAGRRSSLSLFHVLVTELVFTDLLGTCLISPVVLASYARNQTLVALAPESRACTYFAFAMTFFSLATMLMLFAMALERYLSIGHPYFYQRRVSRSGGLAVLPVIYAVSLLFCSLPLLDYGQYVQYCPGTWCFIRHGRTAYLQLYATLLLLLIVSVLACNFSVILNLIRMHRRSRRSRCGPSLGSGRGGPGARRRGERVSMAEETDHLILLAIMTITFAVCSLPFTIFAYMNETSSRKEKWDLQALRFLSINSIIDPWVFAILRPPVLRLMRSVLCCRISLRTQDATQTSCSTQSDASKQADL

In general, Kd refers to the equilibrium constant for the complex coming apart. On to `CC(C)C[C@H]1CN(CC(=O)NCCC(=O)N[C@@H](CCCCNC(=S)Nc2ccc(-c3c4ccc(=O)cc-4oc4cc(O)ccc34)c(C(=O)O)c2)C(N)=O)C(=O)CCSCc2ccc(cc2)C(=O)N[C@@H](CCCCN)CN(C(=O)CCc2ccccc2)CC(=O)N[C@@H](CC(C)C)CN(C(=O)CCC2CCCCC2)CC(=O)N[C@@H](Cc2ccccc2)CN(C(=O)Cc2ccc3ccccc3c2)CC(=O)N1`, for which the Kd in assay [1] is 16 nM.
With `CC(C)C[C@H]1CN(CC(N)=O)C(=O)CCSCc2ccc(cc2)C(=O)N[C@@H](CCCCN)CN(C(=O)CCc2ccccc2)CC(=O)N[C@@H](CC(C)C)CN(C(=O)CCC2CCCCC2)CC(=O)N[C@@H](Cc2ccccc2)CN(C(=O)Cc2ccc3ccccc3c2)CC(=O)N1`, the outcome in assay [2] was Active.
On to `CC(C)C[C@H]1CN(CC(N)=O)C(=O)CCSCc2ccc(cc2)C(=O)N[C@@H](CC(C)C)CN(C(=O)CC2CC2)CC(=O)N[C@@H](CCCCN)CN(C(=O)CCc2ccccc2)CC(=O)N[C@@H](Cc2ccccc2)CN(C(=O)CCC2CCCCC2)CC(=O)N1`, for which the outcome in assay [2] was Active.
